For this series, the system named is CCRIS mutagenicity, Ames/micronucleus/aberration tests. Description: CCRIS mutagenicity studies.
The mark [1] stands for this setting: Test System: AMES SALMONELLA TYPHIMURIUM, Strain/Indicator: TA98, Metabolic Activation: NONE, Method: PREINCUBATION
Where [2] appears, read: Test System: AMES SALMONELLA TYPHIMURIUM, Strain/Indicator: TA98, Metabolic Activation: NONE, Method: STANDARD PLATE.
Where [3] appears, read: Test System: AMES SALMONELLA TYPHIMURIUM, Strain/Indicator: TA98, Metabolic Activation: RAT, LIVER, S-9, AROCLOR 1254, Method: PREINCUBATION
Where [4] appears, read: Test System: AMES SALMONELLA TYPHIMURIUM, Strain/Indicator: TA98, Metabolic Activation: RAT, LIVER, S-9, AROCLOR 1254, Method: STANDARD PLATE.
[5] abbreviates: Test System: AMES SALMONELLA TYPHIMURIUM, Strain/Indicator: TA100, Metabolic Activation: NONE, Method: PREINCUBATION
Where [6] appears, read: Test System: AMES SALMONELLA TYPHIMURIUM, Strain/Indicator: TA100, Metabolic Activation: NONE, Method: STANDARD PLATE.
Where [7] appears, read: Test System: AMES SALMONELLA TYPHIMURIUM, Strain/Indicator: TA100, Metabolic Activation: RAT, LIVER, S-9, AROCLOR 1254, Method: PREINCUBATION
Where [8] appears, read: Test System: AMES SALMONELLA TYPHIMURIUM, Strain/Indicator: TA100, Metabolic Activation: RAT, LIVER, S-9, AROCLOR 1254, Method: STANDARD PLATE.
Setting [9] is: Test System: AMES SALMONELLA TYPHIMURIUM, Strain/Indicator: TA1535, Metabolic Activation: NONE, Method: STANDARD PLATE.
Setting [10] is: Test System: AMES SALMONELLA TYPHIMURIUM, Strain/Indicator: TA1535, Metabolic Activation: RAT, LIVER, S-9, AROCLOR 1254, Method: STANDARD PLATE.
Where [11] appears, read: Test System: AMES SALMONELLA TYPHIMURIUM, Strain/Indicator: TA1537, Metabolic Activation: NONE, Method: STANDARD PLATE.
Where [12] appears, read: Test System: AMES SALMONELLA TYPHIMURIUM, Strain/Indicator: TA1537, Metabolic Activation: RAT, LIVER, S-9, AROCLOR 1254, Method: STANDARD PLATE.
The mark [13] stands for this setting: Test System: AMES SALMONELLA TYPHIMURIUM, Strain/Indicator: TA1538, Metabolic Activation: NONE, Method: STANDARD PLATE.
Where [14] appears, read: Test System: AMES SALMONELLA TYPHIMURIUM, Strain/Indicator: TA1538, Metabolic Activation: RAT, LIVER, S-9, AROCLOR 1254, Method: STANDARD PLATE.

Calls of active or inactive are those of the source. No rule for the calls is given here.

As to `C#C[C@]1(O)CC[C@H]2[C@@H]3CCC4=CC(=O)CC[C@@H]4[C@H]3CC[C@@]21C`, the mutagenic call runs as follows: (End Point: IN VITRO CHROMOSOMAL ABERRATIONS, Test System: HUMAN LYMPHOCYTES, Metabolic Activation: NONE) “inactive; negative”; (End Point: IN VITRO CHROMOSOMAL ABERRATIONS, Test System: HUMAN LYMPHOCYTES, Metabolic Activation: RAT, LIVER, S-9, PHENOBARBITONE) “inactive; negative”; (End Point: IN VIVO MICRONUCLEUS, Test System: HEPATOCYTES, Species: RAT, Strain/Sex: SPRAGUE-DAWLEY/FEMALE, Route: INTRAGASTRIC (GAVAGE)) “inactive; negative (nonstatistically significant increase)”; (Test System: AMES SALMONELLA TYPHIMURIUM, Strain/Indicator: TA98, Metabolic Activation: NONE) “inactive; negative”; under setting [1], “inactive; negative”; under setting [2], “inactive; negative”. The mutagenic call is, setting by setting: under setting [3], “inactive; negative”; under setting [4], “inactive; negative”; (Test System: AMES SALMONELLA TYPHIMURIUM, Strain/Indicator: TA98, Metabolic Activation: S-9) “inactive; negative”; (Test System: AMES SALMONELLA TYPHIMURIUM, Strain/Indicator: TA100, Metabolic Activation: NONE) “inactive; negative”; under setting [5], “inactive; negative”; under setting [6], “inactive; negative”. Moreover, the mutagenic call was “inactive; negative” under setting [7]; “inactive; negative” under setting [8]; “inactive; negative” (Test System: AMES SALMONELLA TYPHIMURIUM, Strain/Indicator: TA100, Metabolic Activation: S-9); “inactive; negative” (Test System: AMES SALMONELLA TYPHIMURIUM, Strain/Indicator: TA1535, Metabolic Activation: NONE); “inactive; negative” (Test System: AMES SALMONELLA TYPHIMURIUM, Strain/Indicator: TA1535, Metabolic Activation: NONE, Method: PREINCUBATION); “inactive; negative” under setting [9]. Moreover, the mutagenic call runs as follows: (Test System: AMES SALMONELLA TYPHIMURIUM, Strain/Indicator: TA1535, Metabolic Activation: RAT, LIVER, S-9, AROCLOR 1254, Method: PREINCUBATION) “inactive; negative”; under setting [10], “inactive; negative”; (Test System: AMES SALMONELLA TYPHIMURIUM, Strain/Indicator: TA1535, Metabolic Activation: S-9) “inactive; negative”; (Test System: AMES SALMONELLA TYPHIMURIUM, Strain/Indicator: TA1537, Metabolic Activation: NONE) “inactive; negative”; (Test System: AMES SALMONELLA TYPHIMURIUM, Strain/Indicator: TA1537, Metabolic Activation: NONE, Method: PREINCUBATION) “inactive; negative”; under setting [11], “inactive; negative”. The mutagenic call runs as follows: (Test System: AMES SALMONELLA TYPHIMURIUM, Strain/Indicator: TA1537, Metabolic Activation: RAT, LIVER, S-9, AROCLOR 1254, Method: PREINCUBATION) “inactive; negative”; under setting [12], “inactive; negative”; (Test System: AMES SALMONELLA TYPHIMURIUM, Strain/Indicator: TA1537, Metabolic Activation: S-9) “inactive; negative”; (Test System: AMES SALMONELLA TYPHIMURIUM, Strain/Indicator: TA1538, Metabolic Activation: NONE, Method: PREINCUBATION) “inactive; negative”; under setting [13], “inactive; negative”; (Test System: AMES SALMONELLA TYPHIMURIUM, Strain/Indicator: TA1538, Metabolic Activation: RAT, LIVER, S-9, AROCLOR 1254, Method: PREINCUBATION) “inactive; negative”. Moreover, the mutagenic call was “inactive; negative” under setting [14]; “inactive; negative” (Test System: E. COLI, Strain/Indicator: WP2 UVRA, Metabolic Activation: NONE); “inactive; negative” (Test System: E. COLI, Strain/Indicator: WP2 UVRA, Metabolic Activation: S-9).

As for `CC(C)N(C(=O)SC/C(Cl)=C/Cl)C(C)C`, the mutagenic call under setting [2] was “inactive; negative”; the mutagenic call under setting [4] is “active; positive”; the mutagenic call under setting [6] is “inactive; negative”; the mutagenic call under setting [8] is “active; positive”; the mutagenic call under setting [9] was “inactive; negative”; the mutagenic call under setting [10] is “active; positive”. Besides, the mutagenic call is “inactive; negative” under setting [11], “inactive; negative” under setting [12], “inactive; negative” under setting [13] and “inactive; negative” under setting [14].

For the molecule `O.O.O=C([O-])C(=O)[O-].O=C([O-])C(=O)[O-].[K+].[K+].[Pt+2]`, the mutagenic call runs as follows: under setting [1], “inactive; negative”; under setting [3], “inactive; negative”; under setting [5], “inactive; negative”; under setting [7], “inactive; negative”.

In the case of `C[C@@H]1CC[C@@]2(OC1)O[C@H]1C[C@H]3[C@@H]4CC=C5C[C@@H](O[C@@H]6O[C@H](CO)[C@@H](O)[C@H](O[C@@H]7O[C@H](CO)[C@@H](O)[C@H](O)[C@H]7O)[C@H]6O[C@@H]6O[C@@H](C)[C@H](O)[C@@H](O)[C@H]6O)CC[C@]5(C)[C@H]4CC[C@]3(C)[C@H]1[C@@H]2C`, the mutagenic call under setting [2] was “inactive; negative”; the mutagenic call (Test System: AMES SALMONELLA TYPHIMURIUM, Strain/Indicator: TA98, Metabolic Activation: RAT, LIVER, S-9, PHENOBARBITAL, Method: STANDARD PLATE) is “inactive; negative”; the mutagenic call under setting [6] was “inactive; negative”; the mutagenic call (Test System: AMES SALMONELLA TYPHIMURIUM, Strain/Indicator: TA100, Metabolic Activation: RAT, LIVER, S-9, PHENOBARBITAL, Method: STANDARD PLATE) was “inactive; negative”.

Regarding `c1ccc2nc3c(cc2c1)-c1cccc2cccc-3c12`, the mutagenic call by setting is: under setting [2], “inactive; negative”; (Test System: AMES SALMONELLA TYPHIMURIUM, Strain/Indicator: TA98, Metabolic Activation: RAT, LIVER, S-9, Method: STANDARD PLATE) “inactive; negative”; under setting [6], “inactive; negative”; (Test System: AMES SALMONELLA TYPHIMURIUM, Strain/Indicator: TA100, Metabolic Activation: RAT, LIVER, S-9, Method: STANDARD PLATE) “inactive; negative”.

Turning to `O=C(O)c1ccc(NC2OCC(O)C(O)C2O)cc1` (stereo unspecified), the mutagenic call (Test System: AMES SALMONELLA TYPHIMURIUM, Strain/Indicator: TA100, Metabolic Activation: NONE, Method: LIQUID INCUBATION) is “inactive; negative”.

The record behind these values is PubChem BioAssay AID1259407 (Chemical Carcinogenesis Research Information System (CCRIS), 2018).
